In PubChem BioAssay AID1963825 (Molecular Pharmacology Branch, DTP, NCI, 2024):
pIC50: −log10 of the molar value.

Assay: Anticancer human tumor 997537-175-T-J1-PDC patient-derived colon adenocarcinoma cell line growth inhibition [POLQ]
Details: 997537-175-T-J1-PDC complex spheroid viability, combination with POLQ inhibitors; for pIC50: curve of first compound; for viability, T/C: stronger effect = lower value
Method in brief: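 Complex spheroid viability model combining PDC tumour cells with endothelial (HUVEC) and MSC stromal cells. Novobiocin, ART-558 or RP6685 were tested singly and in combination with standard and investigational anticancer drugs. Each was titrated in half-log steps from near clinical Cmax, or from 10 microM where Cmax was unknown.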

[1] = second compound 0.0316 µM, first compound 0.0316 µM
[2] = second compound 0.0316 µM, first compound 0.1 µM
[3] = second compound 0.1 µM, first compound 0.0316 µM
[4] = second compound 0.1 µM, first compound 0.1 µM
[5] = second compound 0.316 µM, first compound 0.0316 µM
[6] = second compound 0.316 µM, first compound 0.1 µM
[7] = second compound 1 µM, first compound 0.0316 µM
[8] = second compound 1 µM, first compound 0.1 µM
[9] = second compound 3.16 µM, first compound 0.0316 µM
[10] = second compound 3.16 µM, first compound 0.1 µM
[11] = second compound 10 µM, first compound 0.0316 µM
[12] = second compound 10 µM, first compound 0.1 µM
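Note: luminescence signal used as a surrogate for viable cells; spheroids exposed to drugs for seven days before readout.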

COc1cc(C2c3cc4c(cc3C(OC3OC5COC(C)OC5C(O)C3O)C3COC(=O)C23)OCO4)cc(OC)c1O (centres undefined) + Cc1cccc(N(C)C(=O)C2C(O)CCN2c2nc(C)cc(C(F)(F)F)c2C#N)c1
pIC50 (second compound 0.0316 µM): < 5.00 | pIC50 (second compound 0.1 µM): < 5.00 | pIC50 (second compound 0.316 µM): < 5.00 | pIC50 (second compound 1 µM): < 5.00 | pIC50 (second compound 3.16 µM): < 5.00 | pIC50 (second compound 10 µM): < 5.00 | viability, T/C [1]: 100% | viability, T/C [2]: 99.4% | viability, T/C (second compound 0.0316 µM, first compound 0.316 µM): 95.5% | viability, T/C (second compound 0.0316 µM, first compound 1 µM): 97.7% | viability, T/C (second compound 0.0316 µM, first compound 3.16 µM): 75.2% | viability, T/C (second compound 0.0316 µM, first compound 10 µM): 68.9% | viability, T/C [3]: 96.3% | viability, T/C [4]: 109% | viability, T/C (second compound 0.1 µM, first compound 0.316 µM): 94.6% | viability, T/C (second compound 0.1 µM, first compound 1 µM): 102% | viability, T/C (second compound 0.1 µM, first compound 3.16 µM): 75.1% | viability, T/C (second compound 0.1 µM, first compound 10 µM): 61.9% | viability, T/C [5]: 99.8% | viability, T/C [6]: 102% | viability, T/C (second compound 0.316 µM, first compound 0.316 µM): 96.3% | viability, T/C (second compound 0.316 µM, first compound 1 µM): 97.2% | viability, T/C (second compound 0.316 µM, first compound 3.16 µM): 85% | viability, T/C (second compound 0.316 µM, first compound 10 µM): 52.8% | viability, T/C [7]: 103% | viability, T/C [8]: 105% | viability, T/C (second compound 1 µM, first compound 0.316 µM): 104% | viability, T/C (second compound 1 µM, first compound 1 µM): 110% | viability, T/C (second compound 1 µM, first compound 3.16 µM): 82% | viability, T/C (second compound 1 µM, first compound 10 µM): 51.2% | viability, T/C [9]: 89.5% | viability, T/C [10]: 86.2% | viability, T/C (second compound 3.16 µM, first compound 0.316 µM): 102% | viability, T/C (second compound 3.16 µM, first compound 1 µM): 93.3% | viability, T/C (second compound 3.16 µM, first compound 3.16 µM): 77.3% | viability, T/C (second compound 3.16 µM, first compound 10 µM): 69.4% | viability, T/C [11]: 112% | viability, T/C [12]: 91.3% | viability, T/C (second compound 10 µM, first compound 0.316 µM): 106% | viability, T/C (second compound 10 µM, first compound 1 µM): 91.9% | viability, T/C (second compound 10 µM, first compound 3.16 µM): 76.3% | viability, T/C (second compound 10 µM, first compound 10 µM): 64.6%

Cn1ncnc1[C@H]1c2n[nH]c(=O)c3cc(F)cc(c23)N[C@@H]1c1ccc(F)cc1 + COC1C(OC(N)=O)C(O)C(Oc2ccc3c(O)c(NC(=O)c4ccc(O)c(CC=C(C)C)c4)c(=O)oc3c2C)OC1(C)C
pIC50 (second compound 0.0316 µM): < 7.00 | pIC50 (second compound 0.1 µM): < 7.00 | pIC50 (second compound 0.316 µM): < 7.00 | pIC50 (second compound 1 µM): < 7.00 | pIC50 (second compound 3.16 µM): < 7.00 | pIC50 (second compound 10 µM): < 7.00 | viability, T/C (second compound 0.0316 µM, first compound 0.000316 µM): 92.9% | viability, T/C (second compound 0.0316 µM, first compound 0.001 µM): 99.7% | viability, T/C (second compound 0.0316 µM, first compound 0.00316 µM): 108% | viability, T/C (second compound 0.0316 µM, first compound 0.01 µM): 97.1% | viability, T/C [1]: 90.9% | viability, T/C [2]: 82.8% | viability, T/C (second compound 0.1 µM, first compound 0.000316 µM): 102% | viability, T/C (second compound 0.1 µM, first compound 0.001 µM): 96.8% | viability, T/C (second compound 0.1 µM, first compound 0.00316 µM): 91.8% | viability, T/C (second compound 0.1 µM, first compound 0.01 µM): 91.9% | viability, T/C [3]: 97.9% | viability, T/C [4]: 91.5% | viability, T/C (second compound 0.316 µM, first compound 0.000316 µM): 102% | viability, T/C (second compound 0.316 µM, first compound 0.001 µM): 95.9% | viability, T/C (second compound 0.316 µM, first compound 0.00316 µM): 98.3% | viability, T/C (second compound 0.316 µM, first compound 0.01 µM): 91% | viability, T/C [5]: 91.7% | viability, T/C [6]: 92.8% | viability, T/C (second compound 1 µM, first compound 0.000316 µM): 104% | viability, T/C (second compound 1 µM, first compound 0.001 µM): 97.1% | viability, T/C (second compound 1 µM, first compound 0.00316 µM): 94.9% | viability, T/C (second compound 1 µM, first compound 0.01 µM): 101% | viability, T/C [7]: 104% | viability, T/C [8]: 102% | viability, T/C (second compound 3.16 µM, first compound 0.000316 µM): 97% | viability, T/C (second compound 3.16 µM, first compound 0.001 µM): 104% | viability, T/C (second compound 3.16 µM, first compound 0.00316 µM): 94.8% | viability, T/C (second compound 3.16 µM, first compound 0.01 µM): 96.4% | viability, T/C [9]: 105% | viability, T/C [10]: 83.3% | viability, T/C (second compound 10 µM, first compound 0.000316 µM): 94.7% | viability, T/C (second compound 10 µM, first compound 0.001 µM): 94.8% | viability, T/C (second compound 10 µM, first compound 0.00316 µM): 89.1% | viability, T/C (second compound 10 µM, first compound 0.01 µM): 110% | viability, T/C [11]: 98.3% | viability, T/C [12]: 102%
